Legend:
[1] = system: Na+-dependent Cl-/HCO3- exchanger (NCBE); assay: Inhibition of the Na+-dependent Cl-/HCO3- exchanger (NCBE) in human endothelial cells (BCECF fluorescence, FLIPR, pHi recovery); type: cell-based; conditions: inhibitor concentration 10 μM; human endothelial cells (ECV-304); 50 μM HOE 642 present; 35° C., 2 minutes
Method: Inhibition of the Na^+-dependent Cl^−/HCO3^− Exchanger (NCBE) in Human Endothelial Cells
Human endothelial cells (ECV-304) were detached from culture bottles with the aid of trypsin/EDTA buffer (0.05/0.02% in phosphate buffer) and, after centrifugation (100 g, 5 min), taken up in a buffered salt solution (mmol/l: 115 NaCl, 20 NH4Cl, 5 KCl, 1 CaCl2, 1 MgSO4, 20 N-(2-hydroxyethyl)piperazine-N-2-ethanesulfonic acid (HEPES), 5 glucose and 1 g/l of bovine serum albumin; pH 7.4). This cell suspension was incubated at 37° C. for 20 min with 5 μM BCECF-acetoxymethyl ester. The cells were then washed and resuspended in a sodium- and bicarbonate-free buffer solution (mmol/l: 5 HEPES, 133.8 choline chloride, 4.7 KCl, 1.25 MgCl2, 0.97 K2HPO4, 0.23 KH2PO4, 5 glucose; pH 7.4).
For subsequent fluorescence measurement in an FLIPR (Fluorescent Imaging Plate Reader) 100 μl of this cell suspension having 20,000 cells in each case were pipetted per well into a 96-well microtiter plate and this microtiter plate was centrifuged (100 g, 5 min).
In the FLIPR, 100 μl of buffer solution in each case were then removed from a further pretreated microtiter plate and pipetted into each of the 96 wells of the measurement plate. A bicarbonate- and sodium-containing buffer solution (mmol/l: 5 HEPES, 93.8 NaCl, 40 NaHCO3, 4.7 KCl, 1.25 CaCl2, 1.25 MgCl2, 0.97 Na2HPO4, 0.23 NaH2PO4, 5 glucose; pH 7.4) which contained 50 μM HOE 642 was used for a 100% control, i.e. a recovery of the intracellular pH (pHi) via the NCBE. For a 0% control, i.e. no pHi recovery at all, a bicarbonate-free, sodium-containing buffer solution (mmol/l: 5 HEPES, 133.8 NaCl, 4.7 KCl, 1.25 CaCl2, 1.25 MgCl2, 0.97 Na2HPO4, 0.23 NaH2PO4, 5 glucose; pH 7.4) was employed, to which 50 μM HOE 642 were likewise added. The compounds according to the invention were added to the sodium- and bicarbonate-containing solution in various concentrations.
After addition of the buffer solutions to the dye-loaded, acidified cells in the measurement plate, the rise in the fluorescence intensity, which corresponded to a rise in the pHi, in each well of the microtiter plate was determined. The kinetics were in this case recorded at 35° C. for a period of 2 minutes.
The increase in the fluorescence intensities for different concentrations of the compounds according to the invention was related to the two controls and from this the inhibitory action of the substances was determined.

SMILES | Residual activity of the NCBE at an inhibitor concentration of 10 μM (in %) [1] [%] | melting point
COCCOc1nc(-c2ccccc2)n(Cc2ccc(-c3ccccc3S(=O)(=O)NC#N)cc2S(C)(=O)=O)c1C=O [Example 1, 4′-[5-Formyl-4-(2-methoxyethoxy)-2-phenylimidazol-1-ylmethyl]-3′-methanesulfonylbiphenyl-2-sulfonylcyanamide] | 9.8 | > 270 °C
COCCOc1nc(-c2ccccc2)n(Cc2ccc(-c3ccccc3S(=O)(=O)NC#N)cc2Cl)c1C=O [Example 2, 3′-Chloro-4′-[5-formyl-4-(2-methoxyethoxy)-2-phenylimidazol-1-ylmethyl]-biphenyl-2-sulfonylcyanamide] | 18.9 | 195 °C (dec.)
COCCOc1nc(-c2ccc(C(C)C)cc2)n(Cc2ccc(-c3ccccc3S(=O)(=O)NC#N)cc2)c1C=O [Example 3, 4′-[5-Formyl-2-(4-isopropylphenyl)-4-(2-methoxyethoxy)imidazol-1-ylmethyl]biphenyl-2-sulfonylcyanamide] | 29.6 | –
COCCOc1cc(-c2ccccc2S(=O)(=O)NC#N)ccc1Cn1c(-c2ccccc2)nc(OCCOC)c1C=O [Example 4, 4′-[5-Formyl-4-(2-methoxyethoxy)-2-phenylimidazol-1-ylmethyl]-3′-(2-methoxyethoxy)biphenyl-2-sulfonylcyanamide] | 13.5 | 162 °C

Reference: patent US6369236B1, “Imidazole derivatives with biphenylsulfonyl substitution method for preparing them and their use as a drug or diagnostic agent” (Aventis Pharma Deutschland GmbH, priority 1998, dated 2002)
